Measurements: US12686679B2, “Crystals of alkynyl-containing compound, salt and solvate thereof, preparation method, and applications” (GUANGZHOU HEALTHQUEST PHARMA CO., LTD., priority 2020, dated 2026)

Tests used:
Type in all cases: physicochemical
[1] = Stability test of crystal form I (different temperature, humidity and light)
Experimental: (§1) Using X-ray powder diffractometer (Brooke D8 advance or D2 Phase) was used to characterize the solid. • Scanning angle: […]-40 (2θ). • Step size: 0.02° (2θ). • Scan speed: 0.3 sec/step (D8), 0.2 sec/step (D2). • Light tube voltage: 40 KV (D8), 30 KV (D2). • Light tube current: 40 mA (D8), 10 mA (D2). • Rotation: On. • Sample tray: zero background sample tray. TGA
The stability of the crystal form I prepared in Examples 1-13 was studied. Before the test, the single impurities of the crystal form I were less than 0.05%, and the total impurities were less than 0.05%.
Place the crystal form I under 60° C., high humidity, and light conditions, and sample at 0 days/5 days/10 days to investigate its content and related substances. The lighting conditions are: total illuminance: ≥1.2×106 Lux·hr, near ultraviolet energy ≥200 w·hr/m2.

[2] = Suspension stirring experiment of crystal form I (stability in different solvents); details: for 50° C. suspension (solid form) / Room temperature suspension (solid form): stirred 3 days
Experimental: as §1
Weigh the sample crystal form I and place it in a sample bottle, and then add a solvent to prepare a suspension. The resulting suspension is stirred at room temperature and 50° C. for 3 days, then filtered and collected the solid, and the solid is characterized.

[3] = Hygroscopicity test of crystal form I, dynamic moisture adsorption (DVS)
Experimental: (§2) DVS analysis of solids using IGASORP dynamic water adsorption instrument. • temperature: 25° C. • airflow: 250 mL/min. • Scan loop: 2. • Minimum test time: 30 min. • Longest test time: 2 h. • Waiting for balance: 98%. PLM
The hygroscopicity of the crystal form I prepared in Examples 1-13 was studied, and 10 mg of the crystal form I was taken for a dynamic moisture adsorption (DVS) test.

[4] = Suspension stirring experiment of crystal form II (stability in different solvents); details: for Room temperature suspension (solid form) / 50° C. suspension (solid form): stirred 3-4 days
Experimental: as §1
The resulting suspension is stirred at room temperature and 50° C. for 3-4 days, then filtered and collected the solid. After vacuum drying at room temperature, the solid was characterized.

[5] = Hygroscopicity study of crystal form II, dynamic moisture adsorption (DVS); details: for DVS (90% RH): moisture absorption at 90% relative humidity (RH), 25° C.
Experimental: as §2
The crystalline form II prepared in Example 21 was used to conduct a moisture absorption study, and about 10 mg of crystalline form II was taken for a dynamic moisture adsorption (DVS) test. The conclusions are described in Table 24 below

[6] = Stability test of crystal form II (different temperature and humidity)
[7] = 0 day (before the test), listed as Form I
[8] = 0 day (before the test), listed as crystal form I
[9] = 60° C., high humidity and light conditions on 5 and 10 days
[10] = 0 day (before the test), listed as crystal form II
[11] = 60° C. and high humidity in 5 and 10 days

Cc1ccc(C(=O)Nc2ccc(CN3CCN(C)CC3)c(C(F)(F)F)c2)cc1C#Cc1cnc2[nH]ncc2c1 [Crystal form I, 3-((1H-pyrazolo[3,4-b]pyridin-5-yl)ethynyl)-4-methyl-N-(4-((4-methylpiperazine-1-yl)methyl)-3-(trifluoromethyl)phenyl) benzamide]
XPRD ([1]; 0 day): Form I
content ([1]; 0 day): 101.2%
Single impurity [1, 7]: <0.05%
Total impurities [1, 7]: <0.05%
Single impurity [1, 8]: less than 0.05%
Total impurities [1, 8]: less than 0.05%
content [1, 9]: ~100%
single impurity content [1, 9]: less than 0.05%
total impurity content [1, 9]: less than 0.05%
stability (conclusion) ([1]; 60° C., high humidity and light conditions, 5 and 10 days): good stability
Single impurity ([1]; 5 days-60° C.): <0.05%
Total impurities ([1]; 5 days-60° C.): <0.05%
XPRD ([1]; 5 days-60° C.): Form I
content ([1]; 5 days-60° C.): 100.8%
Single impurity ([1]; 5 days-high humidity): <0.05%
Total impurities ([1]; 5 days-high humidity): <0.05%
XPRD ([1]; 5 days-high humidity): Form I
content ([1]; 5 days-high humidity): 101.4%
Single impurity ([1]; 5 days-light): <0.05%
Total impurities ([1]; 5 days-light): <0.05%
XPRD ([1]; 5 days-light): Form I
content ([1]; 5 days-light): 101.5%
Single impurity ([1]; 10 days-60° C.): <0.05%
Total impurities ([1]; 10 days-60° C.): <0.05%
XPRD ([1]; 10 days-60° C.): Form I
content ([1]; 10 days-60° C.): 100.8%
Single impurity ([1]; 10 days-high humidity): <0.05%
Total impurities ([1]; 10 days-high humidity): <0.05%
XPRD ([1]; 10 days-high humidity): Form I
content ([1]; 10 days-high humidity): 100.9%
Single impurity ([1]; 10 days-light): <0.05%
Total impurities ([1]; 10 days-light): <0.05%
XPRD ([1]; 10 days-light): Form I
content ([1]; 10 days-light): 100.4%
50° C. suspension (solid form) ([2]; Acetone): Form I
Room temperature suspension (solid form) ([2]; Acetone): Form I
50° C. suspension (solid form) ([2]; Acetonitrile): Form I
Room temperature suspension (solid form) ([2]; Acetonitrile): Form I
50° C. suspension (solid form) ([2]; Acetonitrile:water 1:1 (v:v)): Form I
Room temperature suspension (solid form) ([2]; Acetonitrile:water 1:1 (v:v)): Form I
50° C. suspension (solid form) ([2]; Butanone): Form I
Room temperature suspension (solid form) ([2]; Butanone): Form I
50° C. suspension (solid form) ([2]; Ethanol): Form I
Room temperature suspension (solid form) ([2]; Ethanol): Form I
50° C. suspension (solid form) ([2]; Ethyl acetate): Form I
Room temperature suspension (solid form) ([2]; Ethyl acetate): Form I
50° C. suspension (solid form) ([2]; Isopropanol): Form I
Room temperature suspension (solid form) ([2]; Isopropanol): Form I
50° C. suspension (solid form) ([2]; Isopropyl acetate): Form I
Room temperature suspension (solid form) ([2]; Isopropyl acetate): Form I
50° C. suspension (solid form) ([2]; Methanol): Form I
Room temperature suspension (solid form) ([2]; Methanol): Form I
50° C. suspension (solid form) ([2]; Methyl tert-butyl ether): Form I
Room temperature suspension (solid form) ([2]; Methyl tert-butyl ether): Form I
stability in a variety of solvents (conclusion) ([2]; suspension stirring, room temperature and 50° C.): good stability
DVS (90% RH) ([3]; 90% RH, 25° C.): 0.12%
DVS XRPD ([3]; XRPD after DVS): Unchanged
hygroscopicity (conclusion) ([3]; during storage): not easy to absorb water

Cc1ccc(C(=O)Nc2ccc(CN3CCN(C)CC3)c(C(F)(F)F)c2)cc1C#Cc1cnc2[nH]ncc2c1.O=C(O)/C=C/C(=O)O [Crystal form II, 3-((1H-pyrazolo[3,4-b]pyridin-5-yl)ethynyl)-4-methyl-N-(4-((4-methylpiperazine-1-yl)methyl)-3-(trifluoromethyl)phenyl) benzamide fumarate]
Room temperature suspension (solid form) ([4]; 1,4-dioxane): Crystal Form II
50° C. suspension (solid form) ([4]; Acetone:water 1:2 (v:v)): Crystal Form XIV
50° C. suspension (solid form) ([4]; Acetonitrile): Crystal Form II
Room temperature suspension (solid form) ([4]; Acetonitrile): Crystal Form II
50° C. suspension (solid form) ([4]; Ethyl acetate): Crystal Form II
Room temperature suspension (solid form) ([4]; Ethyl acetate): Crystal Form II
50° C. suspension (solid form) ([4]; Isopropanol): Crystal Form II
Room temperature suspension (solid form) ([4]; Isopropanol): Crystal Form II
Room temperature suspension (solid form) ([4]; Isopropyl acetate): Crystal Form II
Room temperature suspension (solid form) ([4]; Methanol:water 3:1 (v:v)): Crystal Form II
Room temperature suspension (solid form) ([4]; N-heptane): Crystal Form II
50° C. suspension (solid form) ([4]; Tetrahydrofuran): Crystal Form II
Room temperature suspension (solid form) ([4]; Tetrahydrofuran): Crystal Form II
50° C. suspension (solid form) ([4]; ethanol): Crystal Form II
Room temperature suspension (solid form) ([4]; ethanol): Crystal Form II
50° C. suspension (solid form) ([4]; methanol): Crystal Form II
Room temperature suspension (solid form) ([4]; methanol): Crystal Form II
stability at room temperature and 50° C. (conclusion) ([4]; suspension stirring in solvents): good stability
hygroscopicity (conclusion) ([5]; during storage): not easy to absorb water
XRPD before and after DVS ([5]; listed as Crystal Form II): Unchanged
XRPD before and after DVS ([5]; listed as crystal form II): has not changed
DVS (90% RH) ([5]; listed as Crystal Form II): 1.66%
DVS (90% RH) ([5]; listed as crystal form II): 1.66%
XPRD ([6]; 0 day): Crystal Form II
content ([6]; 0 day): 98.7%
Single impurity ([6]; 0 day (before the test)): <0.05%
Total impurities ([6]; 0 day (before the test)): <0.05%
Single impurity [6, 10]: less than 0.05%
Total impurities [6, 10]: less than 0.05%
The content (single impurity) [6, 11]: less than 0.05
content [6, 11]: ≥ 98.5%
total impurity content [6, 11]: less than 0.05
stability (conclusion) ([6]; 60° C. and high humidity, 5 and 10 days): good stability
Single impurity ([6]; 5 days-60° C.): <0.05%
Total impurities ([6]; 5 days-60° C.): <0.05%
XPRD ([6]; 5 days-60° C.): Crystal Form II
content ([6]; 5 days-60° C.): 99.5%
Single impurity ([6]; 5 days-high (high humidity)): <0.05%
Total impurities ([6]; 5 days-high (high humidity)): <0.05%
XPRD ([6]; 5 days-high (high humidity)): Crystal Form II
content ([6]; 5 days-high (high humidity)): 99.4%
Single impurity ([6]; 10 days-60° C.): <0.05%
Total impurities ([6]; 10 days-60° C.): <0.05%
XPRD ([6]; 10 days-60° C.): Crystal Form II
content ([6]; 10 days-60° C.): 99.2%
Single impurity ([6]; 10 days-high (high humidity)): <0.05%
Total impurities ([6]; 10 days-high (high humidity)): <0.05%
XPRD ([6]; 10 days-high (high humidity)): Crystal Form II
content ([6]; 10 days-high (high humidity)): 99.0%
